In the test the target is T1, histamine-3 receptor (Rattus norvegicus, UniProt Q9QYN8).
T1 construct: from tissue; host or cells: male Sprague-Dawley rat brain cortex membranes
T1 sequence (Q9QYN8 whole entry): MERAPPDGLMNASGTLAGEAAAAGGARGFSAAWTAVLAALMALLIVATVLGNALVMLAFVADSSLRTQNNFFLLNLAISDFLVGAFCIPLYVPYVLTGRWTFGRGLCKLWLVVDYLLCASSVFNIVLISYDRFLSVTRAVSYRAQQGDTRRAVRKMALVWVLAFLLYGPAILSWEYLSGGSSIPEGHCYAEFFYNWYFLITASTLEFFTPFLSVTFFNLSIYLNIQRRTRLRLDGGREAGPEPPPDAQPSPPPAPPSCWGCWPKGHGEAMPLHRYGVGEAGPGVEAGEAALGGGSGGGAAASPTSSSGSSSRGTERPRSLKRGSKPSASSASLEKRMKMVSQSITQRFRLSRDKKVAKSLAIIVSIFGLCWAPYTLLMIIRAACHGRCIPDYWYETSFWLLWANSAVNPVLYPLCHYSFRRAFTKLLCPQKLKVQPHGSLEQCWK
In words: Histamine-3 receptor binding: displacement of (3H)-N-α-methylhistamine from rat cortical membranes. The arrangement: species or system male Sprague-Dawley rat. To be noted: (3H)-N-α-methylhistamine (~0.6 nM), 30 minutes at 25 °C, pH 7.7, Cheng-Prusoff equation. The protocol:
Briefly, male Sprague-Dawley rat brain cortices were homogenized (1 g tissue/10 mL buffer) in 50 mM Tris-HCl/5 mM EDTA containing protease inhibitor cocktail (Calbiochem) using a polytron set at 20,500 rpm. Homogenates were centrifuged for 20 minutes at 40,000xg. The supernatant was decanted, and pellets were weighed. The pellet was resuspended by polytron homogenization in 40 mL 50 mM Tris-HCI/5 mM EDTA with protease inhibitors and centrifuged for 20 minutes at 40,000xg. […] Test compounds were dissolved in DMSO to provide a 20 mM solution, serially diluted and then added to the incubation mixtures prior to initiating the incubation assay by addition of the membranes. Thioperamide (3 µM) was used to determine nonspecific binding. Binding incubations were conducted for 30 minutes at 25 °C and terminated by addition of 2 mL of ice cold 50 mM Tris-HCl (pH 7.7) and filtration through 0.3% polyethylenimine-soaked Unifilter plates (Packard). These filters were washed 4 additional times with 2 mL of ice-cold 50 mM Tris-HCl and dried for 1 hour. Radioactivity was determined using liquid scintillation counting techniques. Results were analyzed by Hill transformation and Ki values were determined using the Cheng-Prusoff equation.
In general, Ki refers to a dissociation constant, usually derived from enzyme kinetics or from competition with a known ligand. Low values mean higher affinity, high ones lower affinity. Take “1-(4-{3-[(3R)-3-aminopyrrolidinyl]propoxy}phenyl)-1-propanone [Example 7]”: the Ki is 31 nM.

Take `CC(=O)c1ccc(OCCCN2CCC(N3C(=O)NC(C(C)C)C3=O)C2)cc1` [Example 10, (5R)-3-{(3R)-1-[3-(4-acetylphenoxy)propyl]pyrrolidinyl}-5-isopropyl-2,4-imidazolidinedione]: the Ki is 626 nM.

`CC(C)(C)OC(=O)NC1CCN(CCCOc2ccc(-c3ccc(C#N)cc3)cc2)C1` (centres unmarked) [Example 98, tert-butyl 1-{3-[(4'-cyano[1,1'-biphenyl]-4-yl)oxy]propyl}-3-pyrrolidinylcarbamate] gave a Ki of 90 nM.

`CN(C)[C@@H]1CCN(CCCOc2ccc(-c3ccc(C#N)cc3)cc2)C1` [Example 108, 4'-{3-[(3R)-3-(dimethylamino)pyrrolidinyl]propoxy}[1,1'-biphenyl]-4-carbonitrile]: the Ki is 12 nM.

`O=C(c1ccc(OCCCN2CCC(O)C2)cc1)C1CC1` (centres unmarked) [Example 151, cyclopropyl{4-[3-(3-hydroxy-1-pyrrolidinyl)propoxy]phenyl}methanone] gave a Ki of 22 nM.

On to `O=C(c1ccc(OCCCN2CC[C@@H](O)C2)cc1)C1CC1` [Example 152, cyclopropyl(4-{3-[(3R)-3-hydroxypyrrolidinyl]propoxy}phenyl)methanone], for which the Ki stood at 8.7 nM.

As for `N#Cc1ccc(-c2ccc(OCCCN3CC[C@@H](O)C3)cc2)cc1` [Example 153, 4'-{3-[(3R)-3-hydroxypyrrolidinyl]propoxy}[1,1'-biphenyl]-4-carbonitrile], the affinity corresponds to a Ki of 42 nM.

With `N#Cc1ccc(-c2ccc(OCCCN3CCC(=O)C3)cc2)cc1` [Example 154, 4'-[3-(3-oxo-1-pyrrolidinyl)propoxy][1,1'-biphenyl]-4-carbonitrile], the Ki amounted to 63 nM.

Turning to `N#Cc1ccc(-c2ccc(OCCCN3CC[C@H](O)C3)cc2)cc1` [Example 155, 4'-{3-[(3S)-3-hydroxypyrrolidinyl]propoxy}[1,1'-biphenyl]-4-carbonitrile], the Ki stood at 105 nM.

For `CC1(O)CCN(CCCOc2ccc(-c3ccc(C#N)cc3)cc2)C1` (centres unmarked) [Example 156, 4'-[3-(3-hydroxy-3-methyl-1-pyrrolidinyl)propoxy][1,1'-biphenyl]-4-carbonitrile], the Ki came to 45 nM.

In turn, `CC(C)C1(O)CCN(CCCOc2ccc(-c3ccc(C#N)cc3)cc2)C1` (centres unmarked) [Example 157] returned a Ki of 593 nM.

`C[C@@]1(O)CCN(CCCOc2ccc(-c3ccc(C#N)cc3)cc2)C1` [Example 158, 4'-{3-[(3R)-3-hydroxy-3-methylpyrrolidinyl]propoxy}[1,1'-biphenyl]-4-carbonitrile]: the Ki was 15 nM.

Consider “N-((3R)-1-{3-[4-(cyclopropylcarbonyl)phenoxy]propyl}pyrrolidinyl)-4-isopropylbenzenesulfonamide [Example 67]”, for which the Ki was 2.9 nM.

The compound “N-{(3R)-1-[3-(4-acetylphenoxy)propyl]pyrrolidinyl}-4-(trifluoromethoxy)benzenesulfonamide [Example 73]” yielded a Ki of 6.4 nM.

The record behind these values is patent EP1301480B1, “1,3-DISUBSTITUTED AND 1,3,3-TRISUBSTITUTED PYRROLIDINES AS HISTAMINE-3 RECEPTOR LIGANDS AND THEIR THERAPEUTIC APPLICATIONS” (ABBOTT LABORATORIES, priority 2000, dated 2002).
